Source: PubChem BioAssay (NCI)
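Dose response: 5 concentrations. Exposure: 48 h. Format: 96-well plates. Endpoint: linear interpolation; highest concentration if not reached. TGI denotes the concentration required for complete inhibition of growth.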

Experiments:
Assay in all cases: NCI tumour cell line growth inhibition, 48 h
[1] = tested on: 786-0 renal
[2] = tested on: A498 renal
[3] = tested on: A549 NSCLC
[4] = tested on: ACHN renal
[5] = tested on: CAKI-1 renal
[6] = tested on: CCRF-CEM leukemia
[7] = tested on: COLO 205 colon
[8] = tested on: DLD-1 colon
[9] = tested on: DMS 114 small cell lung
[10] = tested on: DMS 273 small cell lung
[11] = tested on: EKVX NSCLC
[12] = tested on: HCC-2998 colon
[13] = tested on: HCT-116 colon
[14] = tested on: HCT-15 colon
[15] = tested on: HL-60(TB) leukemia
[16] = tested on: HOP-18 NSCLC
[17] = tested on: HOP-62 NSCLC
[18] = tested on: HOP-92 NSCLC
[19] = tested on: HT29 colon
[20] = tested on: IGROV1 ovarian
[21] = tested on: K-562 leukemia
[22] = tested on: KM12 colon
[23] = tested on: KM20L2 colon
[24] = tested on: LOX IMVI melanoma
[25] = tested on: LXFL 529 NSCLC
[26] = tested on: M14 melanoma
[27] = tested on: M19-MEL melanoma
[28] = tested on: MALME-3M melanoma
[29] = tested on: MOLT-4 leukemia
[30] = tested on: NCI-H226 lung
[31] = tested on: NCI-H23 lung
[32] = tested on: NCI-H460 lung
[33] = tested on: NCI-H522 lung
[34] = tested on: OVCAR-3 ovarian
[35] = tested on: OVCAR-4 ovarian
[36] = tested on: OVCAR-5 ovarian
[37] = tested on: OVCAR-8 ovarian
[38] = tested on: RPMI-8226 leukemia
[39] = tested on: RXF 393 renal
[40] = tested on: RXF-631 renal
[41] = tested on: SF-268 CNS
[42] = tested on: SF-295 CNS
[43] = tested on: SF-539 CNS
[44] = tested on: SK-MEL-2 melanoma
[45] = tested on: SK-MEL-28 melanoma
[46] = tested on: SK-MEL-5 melanoma
[47] = tested on: SK-OV-3 ovarian
[48] = tested on: SN12C renal
[49] = tested on: SNB-19 CNS
[50] = tested on: SNB-75 CNS
[51] = tested on: SNB-78 CNS
[52] = tested on: SR leukemia
[53] = tested on: TK-10 renal
[54] = tested on: U251 CNS
[55] = tested on: UACC-257 melanoma
[56] = tested on: UACC-62 melanoma
[57] = tested on: UO-31 renal
[58] = tested on: SW-620 colon
[59] = tested on: XF 498 CNS

## COC(=O)N/N=C(\C)c1sc(-c2nc(C)c(/C(C)=N/NC(=O)OC)s2)nc1C
[1]
  TGI: > 100 µM
[2]
  TGI: > 100 µM
[3]
  TGI: > 100 µM
[4]
  TGI: > 100 µM
[5]
  TGI: > 100 µM
[6]
  TGI: > 100 µM
[7]
  TGI: > 100 µM
[8]
  TGI: > 100 µM
[9]
  TGI: > 100 µM
[10]
  TGI: > 100 µM
[11]
  TGI: > 100 µM
[12]
  TGI: > 100 µM
[13]
  TGI: > 100 µM
[14]
  TGI: > 100 µM
[15]
  TGI: > 100 µM
[16]
  TGI: > 100 µM
[17]
  TGI: > 100 µM
[18]
  TGI: > 100 µM
[19]
  TGI: > 100 µM
[20]
  TGI: > 100 µM
[21]
  TGI: > 100 µM
[22]
  TGI: > 100 µM
[23]
  TGI: > 100 µM
[24]
  TGI: > 100 µM
[25]
  TGI: > 100 µM
[26]
  TGI: > 100 µM
[27]
  TGI: > 100 µM
[28]
  TGI: > 100 µM
[29]
  TGI: > 100 µM
[30]
  TGI: > 100 µM
[31]
  TGI: > 100 µM
[32]
  TGI: > 100 µM
[33]
  TGI: > 100 µM
[34]
  TGI: > 100 µM
[35]
  TGI: > 100 µM
[36]
  TGI: > 100 µM
[37]
  TGI: > 100 µM
[38]
  TGI: > 100 µM
[39]
  TGI: > 100 µM
[40]
  TGI: > 100 µM
[41]
  TGI: > 100 µM
[42]
  TGI: > 100 µM
[43]
  TGI: > 100 µM
[44]
  TGI: > 100 µM
[45]
  TGI: > 100 µM
[46]
  TGI: > 100 µM
[47]
  TGI: > 100 µM
[48]
  TGI: > 100 µM
[49]
  TGI: > 100 µM
[50]
  TGI: > 100 µM
[51]
  TGI: > 100 µM
[52]
  TGI: 45.7 µM
[53]
  TGI: > 100 µM
[54]
  TGI: > 100 µM
[55]
  TGI: > 100 µM
[56]
  TGI: > 100 µM
[57]
  TGI: > 100 µM

## C/C=C1/C=CC2c3[nH]c4ccccc4c3CCN2C1 (configuration not stated)
[1]
  TGI: > 400 µM
[3]
  TGI: > 400 µM
[4]
  TGI: > 400 µM
[5]
  TGI: > 400 µM
[6]
  TGI: > 400 µM
[7]
  TGI: > 400 µM
[8]
  TGI: > 400 µM
[9]
  TGI: > 400 µM
[10]
  TGI: > 400 µM
[11]
  TGI: > 400 µM
[12]
  TGI: > 400 µM
[13]
  TGI: > 400 µM
[14]
  TGI: > 400 µM
[15]
  TGI: > 400 µM
[16]
  TGI: 279 µM
[17]
  TGI: > 400 µM
[18]
  TGI: > 400 µM
[19]
  TGI: > 400 µM
[20]
  TGI: > 400 µM
[21]
  TGI: > 400 µM
[22]
  TGI: > 400 µM
[23]
  TGI: > 400 µM
[24]
  TGI: > 400 µM
[25]
  TGI: > 400 µM
[27]
  TGI: > 400 µM
[28]
  TGI: > 400 µM
[29]
  TGI: > 400 µM
[30]
  TGI: > 400 µM
[31]
  TGI: > 400 µM
[32]
  TGI: > 400 µM
[33]
  TGI: > 400 µM
[34]
  TGI: > 400 µM
[37]
  TGI: > 400 µM
[38]
  TGI: > 400 µM
[39]
  TGI: > 400 µM
[40]
  TGI: > 400 µM
[41]
  TGI: > 400 µM
[42]
  TGI: > 400 µM
[43]
  TGI: > 400 µM
[44]
  TGI: > 400 µM
[45]
  TGI: > 400 µM
[46]
  TGI: > 400 µM
[47]
  TGI: > 400 µM
[48]
  TGI: > 400 µM
[49]
  TGI: > 400 µM
[52]
  TGI: > 400 µM
[58]
  TGI: > 400 µM
[53]
  TGI: > 400 µM
[54]
  TGI: > 400 µM
[55]
  TGI: > 400 µM
[56]
  TGI: > 400 µM
[59]
  TGI: > 400 µM

## CCCCCNC(=O)CCCCCCCCCCCNC(=O)CCCCCCCCCCN1C=CC(=CC=C2C=CC(=O)C=C2)C=C1
[1]
  TGI: > 100 µM
[2]
  TGI: > 100 µM
[3]
  TGI: > 100 µM
[4]
  TGI: > 100 µM
[5]
  TGI: > 100 µM
[6]
  TGI: > 100 µM
[7]
  TGI: 28.6 µM
[8]
  TGI: > 100 µM
[9]
  TGI: > 100 µM
[10]
  TGI: > 100 µM
[11]
  TGI: > 100 µM
[12]
  TGI: > 100 µM
[13]
  TGI: > 100 µM
[14]
  TGI: > 100 µM
[15]
  TGI: 8.83 µM
[17]
  TGI: > 100 µM
[18]
  TGI: 55.1 µM
[19]
  TGI: > 100 µM
[20]
  TGI: > 100 µM
[21]
  TGI: > 100 µM
[22]
  TGI: > 100 µM
[23]
  TGI: > 100 µM
[24]
  TGI: > 100 µM
[25]
  TGI: > 100 µM
[26]
  TGI: > 100 µM
[27]
  TGI: > 100 µM
[28]
  TGI: > 100 µM
[29]
  TGI: > 100 µM
[30]
  TGI: > 100 µM
[31]
  TGI: > 100 µM
[32]
  TGI: > 100 µM
[33]
  TGI: > 100 µM
[34]
  TGI: > 100 µM
[35]
  TGI: > 100 µM
[36]
  TGI: > 100 µM
[37]
  TGI: > 100 µM
[38]
  TGI: > 100 µM
[39]
  TGI: > 100 µM
[40]
  TGI: > 100 µM
[41]
  TGI: > 100 µM
[42]
  TGI: > 100 µM
[43]
  TGI: > 100 µM
[45]
  TGI: > 100 µM
[46]
  TGI: > 100 µM
[47]
  TGI: > 100 µM
[48]
  TGI: > 100 µM
[49]
  TGI: > 100 µM
[50]
  TGI: 68.3 µM
[51]
  TGI: 96.9 µM
[52]
  TGI: > 100 µM
[58]
  TGI: > 100 µM
[54]
  TGI: > 100 µM
[55]
  TGI: 88.7 µM
[56]
  TGI: > 100 µM
[57]
  TGI: > 100 µM
[59]
  TGI: > 100 µM

## COC(=O)C1CC(=O)O[C@H]1c1ccc(OC)c(OC)c1 (some centres not stated)
[1]
  TGI: > 100 µM
[2]
  TGI: > 100 µM
[3]
  TGI: > 100 µM
[4]
  TGI: > 100 µM
[5]
  TGI: > 100 µM
[6]
  TGI: > 100 µM
[7]
  TGI: > 100 µM
[8]
  TGI: > 100 µM
[9]
  TGI: > 100 µM
[10]
  TGI: > 100 µM
[11]
  TGI: > 100 µM
[12]
  TGI: > 100 µM
[13]
  TGI: > 100 µM
[14]
  TGI: > 100 µM
[15]
  TGI: > 100 µM
[16]
  TGI: > 100 µM
[17]
  TGI: > 100 µM
[18]
  TGI: > 100 µM
[19]
  TGI: > 100 µM
[20]
  TGI: > 100 µM
[21]
  TGI: > 100 µM
[22]
  TGI: > 100 µM
[23]
  TGI: > 100 µM
[24]
  TGI: > 100 µM
[25]
  TGI: > 100 µM
[26]
  TGI: > 100 µM
[27]
  TGI: > 100 µM
[28]
  TGI: > 100 µM
[29]
  TGI: > 100 µM
[30]
  TGI: > 100 µM
[31]
  TGI: > 100 µM
[32]
  TGI: > 100 µM
[34]
  TGI: > 100 µM
[35]
  TGI: > 100 µM
[36]
  TGI: > 100 µM
[37]
  TGI: > 100 µM
[38]
  TGI: > 100 µM
[39]
  TGI: > 100 µM
[40]
  TGI: > 100 µM
[41]
  TGI: > 100 µM
[42]
  TGI: > 100 µM
[43]
  TGI: > 100 µM
[44]
  TGI: > 100 µM
[45]
  TGI: > 100 µM
[46]
  TGI: > 100 µM
[47]
  TGI: > 100 µM
[48]
  TGI: > 100 µM
[50]
  TGI: > 100 µM
[51]
  TGI: > 100 µM
[52]
  TGI: > 100 µM
[58]
  TGI: > 100 µM
[53]
  TGI: > 100 µM
[54]
  TGI: > 100 µM
[55]
  TGI: > 100 µM
[56]
  TGI: > 100 µM
[57]
  TGI: > 100 µM
[59]
  TGI: > 100 µM
